Reference: patent US20040053918A1, “Erythropoietin production potentiator” (KOWA CO., LTD., priority 2002, published 2004)

Tests used:
Assay type in all cases: cell-based
Hep3B cells [1] = assay: EPO produced by Hep3B cells under 1% O2, ELISA of culture supernatant
Description: (§1) Hep3B cells, which produce EPO at a low O2 partial pressure, were cultured in an amount of 1.5-3.0×10^6 cells/petri dish (100 mm) by use of Dulbecco's modified eagles' medium (DMEM)/10% fetal calf serum (FCS) (10 ml). The next day, the culture liquid of each petri dish was renewed, and a predetermined amount of compound 1 was added thereto, followed by culture for 24 hours at 37° C. under 1% O2 or 21% O2. EPO contained in the resultant culture supernatant was measured through ELISA. Separately, EPO potentiator activity was measured in the following manner. The luciferase-pXP2 (serving as a reporter gene) of a Hep3B wild-type gene was ligated with an enhancer and potentiator fragment (144 bp), to thereby produce a modified Hep3B wild-type gene as Pwt. Hep3B cells were cultured in an amount of 1×10^6 cells/petri dish (30 mm) by use of 4-mL DMEM/10% FCS, and the above modified wild-type (2 μg) and β-galactosidase gene (1 μg) (serving as an internal standard) were inserted into each of the cultured cells through the lipofectin method. […] After completion of culture, luciferase activity and β-galactosidase activity of the resultant cell extract were determined. EPO potentiator activity is represented by the following formula.

Hep3B cells [2] = assay: EPO produced by Hep3B cells under 21% O2, ELISA of culture supernatant
Description: as §1

[3] = system: EPO enhancer and potentiator fragment luciferase reporter in Hep3B cells; assay: EPO potentiator activity, luciferase reporter (Pwt) in Hep3B cells, hypoxic induction; conditions: control HI 52.2±10.7
Description: Hep3B cells, which produce EPO at a low O2 partial pressure, were cultured in an amount of 1.5-3.0×10^6 cells/petri dish (100 mm) by use of Dulbecco's modified eagles' medium (DMEM)/10% fetal calf serum (FCS) (10 ml). […] EPO contained in the resultant culture supernatant was measured through ELISA. Separately, EPO potentiator activity was measured in the following manner. The luciferase-pXP2 (serving as a reporter gene) of a Hep3B wild-type gene was ligated with an enhancer and potentiator fragment (144 bp), to thereby produce a modified Hep3B wild-type gene as Pwt. Hep3B cells were cultured in an amount of 1×10^6 cells/petri dish (30 mm) by use of 4-mL DMEM/10% FCS, and the above modified wild-type (2 μg) and β-galactosidase gene (1 μg) (serving as an internal standard) were inserted into each of the cultured cells through the lipofectin method. […] After completion of culture, luciferase activity and β-galactosidase activity of the resultant cell extract were determined. EPO potentiator activity is represented by the following formula.
HI (hypoxic induction)=(1% O2 luciferase/β-galactosidase)/(21% O2 luciferase/β-galactosidase)

Structure (SMILES): COc1cc(C=CCCCN2CCCN(CCCC=Cc3cc(OC)c(OC)c(OC)c3)CC2)cc(OC)c1OC [compound 1, N,N′-bis(5-(3,4,5-trimethoxyphenyl)-4-pentenyl)homopiperazine]
- amount of EPO (Hep3B cells [1]; 1% O2 (low O2 partial pressure), 24 h, 10 μM compound 1, control 39.5±9.1): 71.0±6.0 mU/protein μg
- amount of EPO (Hep3B cells [1]; 1% O2, 24 h, 15 μM compound 1, control 39.5±9.1): 76.0±13.5 mU/protein μg
- amount of EPO (Hep3B cells [1]; 1% O2, 24 h, 30 μM compound 1, control 39.5±9.1): 91.5±17.8 mU/protein μg
- amount of EPO (Hep3B cells [2]; 21% O2 (normal O2 partial pressure), 24 h, 10 μM compound 1, control 33.6±8.7): 49.5±2.3 mU/protein μg
- amount of EPO (Hep3B cells [2]; 21% O2, 24 h, 15 μM compound 1, control 33.6±8.7): 56.4±2.2 mU/protein μg
- amount of EPO (Hep3B cells [2]; 21% O2, 24 h, 30 μM compound 1, control 33.6±8.7): 116.8±5.2 mU/protein μg
- HI (hypoxic induction), EPO potentiator activity ([3]; 10 μM compound 1 alone): 91.0±36.6
- HI (hypoxic induction), EPO potentiator activity ([3]; 10 μM compound 1 in the presence of 10^−3M L-NMMA): 63.4±7.5
